Patent US11285172B2, “Method for treating inflammatory diseases” (MacKay Memorial Hospital, priority 2019, dated 2022)
Where a name gives a salt, the structure may show the parent alone.

Test system: FANCs internalization in HAECs
Test: Endocytic pathway inhibition: FANC internalization in HAECs after endocytosis inhibitor pre-treatment (flow cytometry, confocal)
Format: cell-based, human
Details: for effect on FANCs internalization: complete medium, inhibitor pre-treatment 45 min (filipin 30 min); for effect on FANCs internalization / decrement of FANCs internalization compared to FANCs control: then FANCs 80 min; for decrement of FANCs internalization compared to FANCs control: 45 min inhibitor pre-treatment
Protocol: In certain experiments, HAECs were treated by endocytosis inhibitors to inhibit endocytic pathways. Endocytosis inhibitors are chlorpromazine hydrochloride (10 μg/ml, C8138), filipin (10 μg/ml, F9765), amiloride (10 μmol/L A7410), and genistein (50 μmol/L G6649; all obtained from Sigma-Aldrich).
Cells were seeded onto 2% gelatin-coated glass coverslips and incubated for 24 hours and applied to FANCs treatments. Cells were fixed with 1% paraformaldehyde, washed with PBS, then blocked with 5% bovine serum albumin (BSA) for 30 minutes. Then the cell culture was incubated with primary antibodies against VE-cadherin at 37° C. for 2 hours, followed by application of FITC-conjugated secondary antibody (Chemicon, Temecula, Calif., USA) for 50 minutes under room temperature. After one hour for the pre-treatment by above-mentioned endocytosis inhibitor, HAECs were incubated with FANCs for 80 minutes followed by washed with PBS and fixed with 1% paraformaldehyde. Afterwards, cells were stained with bisbenzamide (18.7 μmol/L) for 15 minutes and then washed with PBS buffer. Then, the cells were mounted by using 60% glycerol (v/v) and examined by using a confocal microscope (Leica TCS SP5, Leica, Germany) with a 40× oil objective/1.25 aperture. The images were captured under room temperature.
After 45 minutes of inhibitors pre-treatment (except 30 minutes of filipin treatment), FANCs were added and the incubation continued for additional 80 minutes. Thereafter, cells were subject to flow cytometry (FIGS. 1A-1D). […] However, in low serum or no serum medium, internalization of FANCs was blocked by chlorpromazine hydrochloride (compared to FANCs control, 60% of decrement at 1% FBS medium and 51% of decrement at no serum medium; FIGS. 1B and 1C).

Compound	effect on FANCs internalization (flow cytometry)	decrement of FANCs internalization compared to FANCs control (1% FBS medium, flow cytometry, HAECs) [%]	punctate fluorescence signals of FANCs (confocal microscopy) (confocal microscopy, HAECs, FANCs 80 min after inhibitor pre-treatment)	decrement of FANCs internalization compared to FANCs control (no serum medium, flow cytometry, HAECs) [%]	FANC internalization, dose dependence (only in low serum and no serum supplement culture environments, flow cytometry)
CCCCC[C@@H](O)[C@H]1C(=O)O[C@H](C)[C@@H](O)/C=C/C=C/C=C/C=C/C=C(\C)[C@@H](O)C[C@H](O)C[C@H](O)C[C@H](O)C[C@H](O)C[C@H](O)C[C@@H]1O [filipin]	slighter effects	–	–	–	–
O=c1c(-c2ccc(O)cc2)coc2cc(O)cc(O)c12 [genistein]	slighter effects	–	–	–	–
N=C(N)NC(=O)c1nc(Cl)c(N)nc1N [amiloride]	slighter effects	–	–	–	–
CN(C)CCCN1c2ccccc2Sc2ccc(Cl)cc21 [chlorpromazine hydrochloride]	slighter effects	60	down-regulated	51	attenuated FANC internalization in a dose-dependent manner
